Data set [1] deals with T1, Aromatase (Homo sapiens, UniProt P11511).
T1 sequence (P11511 whole entry): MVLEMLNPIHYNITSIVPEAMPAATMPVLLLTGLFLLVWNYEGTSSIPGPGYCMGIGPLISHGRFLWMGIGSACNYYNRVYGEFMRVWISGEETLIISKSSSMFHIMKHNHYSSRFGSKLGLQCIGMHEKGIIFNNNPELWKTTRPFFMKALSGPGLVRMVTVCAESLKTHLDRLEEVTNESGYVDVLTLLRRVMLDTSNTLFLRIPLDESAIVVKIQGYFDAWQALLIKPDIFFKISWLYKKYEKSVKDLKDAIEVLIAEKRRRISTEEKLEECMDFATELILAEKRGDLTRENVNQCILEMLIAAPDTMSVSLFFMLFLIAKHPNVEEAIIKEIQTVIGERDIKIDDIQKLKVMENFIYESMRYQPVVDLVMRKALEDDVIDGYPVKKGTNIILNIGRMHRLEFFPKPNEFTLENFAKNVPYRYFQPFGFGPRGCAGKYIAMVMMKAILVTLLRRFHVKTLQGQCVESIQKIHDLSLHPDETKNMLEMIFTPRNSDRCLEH
Description: Inhibition of Cytochrome P450 19A1 in human placenta

A short description of data set [2]: Compound was evaluated for the spectral dissociation constant. The following applies: read-out: Ks. It is filed as ADME.

The compound `CCCCCC[C@]1(c2ccncc2)CCC(=O)NC1=O` displayed an IC50 in data set [1] of 3600 nM.
On the same count and under the same terms, then `CCCCC[C@]1(c2ccncc2)CCC(=O)NC1=O`, with 2500 nM.
Regarding `CCCCCCCCN1C(=O)CCC(CC)(c2ccncc2)C1=O` (centres undefined), the Kd in data set [2] is 510 nM.
As to `CCCCCCC[C@]1(c2ccncc2)CCC(=O)NC1=O`, the IC50 in data set [1] worked out at 3200 nM.

A word on the IC50: it is the midpoint of a concentration-inhibition curve.
